Reference: ChEMBL document CHEMBL1201862, “PubChem BioAssay data set” (2004)
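Tested at 5 concentrations; 48 h exposure; 96-well plates; endpoints linearly interpolated, else capped at highest concentration. Abbreviation: GI50, concentration required for 50% inhibition of growth.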 Calls of active or inactive are those of the source. Rule as the data show it: active = GI50 up to about 1.1 µM and inactive = higher.

Key:
Test in all cases: growth of human tumour cells (NCI), 48 h
786-0 = tested on: 786-0
A498 = tested on: A498
A549 = tested on: A549
ACHN = tested on: ACHN
BT-549 = tested on: BT-549
CCRF-CEM = tested on: CCRF-CEM
COLO 205 = tested on: COLO 205
DLD-1 = tested on: DLD-1
DMS-114 = tested on: DMS-114
DMS-273 = tested on: DMS-273
DU-145 = tested on: DU-145
HCC 2998 = tested on: HCC 2998
HCT-116 = tested on: HCT-116
HCT-15 = tested on: HCT-15
HL-60 = tested on: HL-60
HOP-62 = tested on: HOP-62
HOP-92 = tested on: HOP-92
HT-29 = tested on: HT-29
Hs-578T = tested on: Hs-578T
IGROV-1 = tested on: IGROV-1
KM-20L2 = tested on: KM-20L2
KM12 = tested on: KM12
LOX IMVI = tested on: LOX IMVI
LXFL 529 = tested on: LXFL 529
M14 = tested on: M14
M19-MEL = tested on: M19-MEL
MCF7 = tested on: MCF7
MDA-MB-231 = tested on: MDA-MB-231
MDA-MB-435 = tested on: MDA-MB-435
MDA-N = tested on: MDA-N
MOLT-4 = tested on: MOLT-4
Malme-3M = tested on: Malme-3M
NCI-H226 = tested on: NCI-H226
NCI-H23 = tested on: NCI-H23
NCI-H460 = tested on: NCI-H460
NCI-H522 = tested on: NCI-H522
NCI/ADR-RES = tested on: NCI/ADR-RES
OVCAR-3 = tested on: OVCAR-3
OVCAR-4 = tested on: OVCAR-4
OVCAR-8 = tested on: OVCAR-8
PC-3 = tested on: PC-3
RPMI-8226 = tested on: RPMI-8226
RXF 393 = tested on: RXF 393
SF-268 = tested on: SF-268
SF-295 = tested on: SF-295
SF-539 = tested on: SF-539
SK-MEL-28 = tested on: SK-MEL-28
SK-MEL-2 = tested on: SK-MEL-2
SK-MEL-5 = tested on: SK-MEL-5
SK-OV-3 = tested on: SK-OV-3
SN12C = tested on: SN12C
SNB-19 = tested on: SNB-19
SNB-78 = tested on: SNB-78
SR = tested on: SR
SW-620 = tested on: SW-620
T47D = tested on: T47D
TK-10 = tested on: TK-10
U-251 = tested on: U-251
UACC-62 = tested on: UACC-62
UO-31 = tested on: UO-31
XF498 = tested on: XF498

Measured: GI50

CC[C@]12C=CCN3CCC4(c5cc([C@@]6(C(=O)OC)CC7CN(CCc8c6[nH]c6ccccc86)C[C@@H]6CCCC[C@H]76)c(OC)cc5N(C)C4[C@](O)(C(=O)OC)C1OC(C)=O)[C@@H]32 (stereo partly specified)
inactive: BT-549 1320 nM | OVCAR-4 5200 nM | SK-MEL-28 2110 nM | T47D 18200 nM
active: 786-0 < 10 nM | A498 < 10 nM | A549 < 10 nM | ACHN < 10 nM | CCRF-CEM < 10 nM | COLO 205 < 10 nM | DLD-1 < 10 nM | DMS-114 < 10 nM | DMS-273 < 10 nM | DU-145 < 10 nM | HCC 2998 < 10 nM | HCT-116 < 10 nM | HL-60 < 10 nM | HOP-62 < 10 nM | HOP-92 25.9 nM | HT-29 < 10 nM | Hs-578T < 10 nM | IGROV-1 < 10 nM | KM-20L2 < 10 nM | KM12 < 10 nM | LOX IMVI < 10 nM | LXFL 529 < 10 nM | M14 < 10 nM | M19-MEL < 10 nM | MCF7 < 10 nM | MDA-MB-231 < 10 nM | MDA-MB-435 < 10 nM | MDA-N < 10 nM | MOLT-4 < 10 nM | Malme-3M < 10 nM | NCI-H226 < 10 nM | NCI-H23 < 10 nM | NCI-H460 < 10 nM | NCI-H522 < 10 nM | NCI/ADR-RES 14.8 nM | OVCAR-3 < 10 nM | OVCAR-8 < 10 nM | PC-3 < 10 nM | RPMI-8226 < 10 nM | RXF 393 < 10 nM | SF-268 < 10 nM | SF-295 < 10 nM | SF-539 < 10 nM | SK-MEL-2 < 10 nM | SK-MEL-5 < 10 nM | SK-OV-3 < 10 nM | SN12C < 10 nM | SNB-19 < 10 nM | SNB-78 < 10 nM | SR < 10 nM | SW-620 < 10 nM | TK-10 < 10 nM | U-251 < 10 nM | UACC-62 < 10 nM | UO-31 < 29.9 nM | XF498 < 10 nM
< 10 nM: HCT-15
